Experiments:
Test in all cases: relative viability (nuclei count vs DMSO), 5 days (fraction); higher = more cells survive
COR-L23 = tested on: COR-L23
How it was run: (§1)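 Relative viability divides the nuclei count in treated wells by that in vehicle wells. Lung cancer cell lines were seeded in 1536-well plates, dosed by pin tool the next day, and fixed and stained after 5 days in one step with final 0.05% Triton X-100, 1% formaldehyde and 1 ug/ml Hoechst. Dosing was a single drug or a fixed anchor-drug dose plus five library-drug doses (not always all listed) in √10 steps, and values are medians of duplicate plates imaged at 4×.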

NCI-H441 = tested on: NCI-H441
How it was run: as §1

NCI-H460 = tested on: NCI-H460
How it was run: as §1

NCI-H1650 = tested on: NCI-H1650
How it was run: as §1

NCI-H358 = tested on: NCI-H358
How it was run: as §1

SK-LU-1 = tested on: SK-LU-1
How it was run: as §1

NCI-H1975 = tested on: NCI-H1975
How it was run: as §1

BEN = tested on: BEN
How it was run: as §1

NCI-H1651 = tested on: NCI-H1651
How it was run: as §1

NCI-H2085 = tested on: NCI-H2085
How it was run: as §1

NCI-H1734 = tested on: NCI-H1734
How it was run: as §1

NCI-H838 = tested on: NCI-H838
How it was run: as §1

NCI-H1793 = tested on: NCI-H1793
How it was run: as §1

HCC-366 = tested on: HCC-366
How it was run: as §1

NCI-H1437 = tested on: NCI-H1437
How it was run: as §1

LOU-NH91 = tested on: LOU-NH91
How it was run: as §1

NCI-H1355 = tested on: NCI-H1355
How it was run: as §1

CAL-12T = tested on: CAL-12T
How it was run: as §1

LU99A = tested on: LU99A
How it was run: as §1

NCI-H2342 = tested on: NCI-H2342
How it was run: as §1

NCI-H2023 = tested on: NCI-H2023
How it was run: as §1

`O=c1cc(-c2cccc3c2Sc2ccccc2S3)oc(N2CCOCC2)c1` + Cc1cc(Nc2cc(N3CCN(C)CC3)nc(Sc3ccc(NC(=O)C4CC4)cc3)n2)n[nH]1 [Tozasertib] (partner 0.1 µM) was tested. Which relative viability (COR-L23; first compound 0.08 µM) did it give?
The relative viability was 0.202.

What about the relative viability (COR-L23; first compound 0.253 µM) of the same compound?
Its relative viability is 0.202.

What about the relative viability (COR-L23; first compound 0.8 µM) of the same compound?
Its relative viability is 0.188.

What about the relative viability (COR-L23; first compound 2.53 µM) of the same compound?
Its relative viability is 0.148.

What about the relative viability (COR-L23; first compound 8 µM) of the same compound?
The relative viability was 0.172.

What about the relative viability (NCI-H441; first compound 0.08 µM) of the same compound?
Its relative viability is 0.686.

And the relative viability (NCI-H441; first compound 0.253 µM)?
Its relative viability is 0.693.

And the relative viability (NCI-H441; first compound 0.8 µM)?
The relative viability was 0.793.

What about the relative viability (NCI-H441; first compound 2.53 µM) of the same compound?
The relative viability was 0.598.

What about the relative viability (NCI-H441; first compound 8 µM) of the same compound?
The relative viability was 0.632.

What about the relative viability (NCI-H460; first compound 0.08 µM) of the same compound?
Its relative viability is 0.453.

And the relative viability (NCI-H460; first compound 0.253 µM)?
The relative viability was 0.364.

What about the relative viability (NCI-H460; first compound 0.8 µM) of the same compound?
The relative viability was 0.147.

And the relative viability (NCI-H460; first compound 2.53 µM)?
The relative viability was 0.257.

What about the relative viability (NCI-H460; first compound 8 µM) of the same compound?
Its relative viability is 0.166.

What about the relative viability (NCI-H1650; first compound 0.08 µM) of the same compound?
Its relative viability is 0.471.

What about the relative viability (NCI-H1650; first compound 0.253 µM) of the same compound?
Its relative viability is 0.458.

And the relative viability (NCI-H1650; first compound 0.8 µM)?
The relative viability was 0.392.

What about the relative viability (NCI-H1650; first compound 2.53 µM) of the same compound?
The relative viability was 0.294.

And the relative viability (NCI-H1650; first compound 8 µM)?
The relative viability was 0.326.

And the relative viability (NCI-H358; first compound 0.08 µM)?
The relative viability was 0.0969.

And the relative viability (NCI-H358; first compound 0.253 µM)?
The relative viability was 0.101.

And the relative viability (NCI-H358; first compound 0.8 µM)?
The relative viability was 0.12.

And the relative viability (NCI-H358; first compound 2.53 µM)?
Its relative viability is 0.0965.

And the relative viability (NCI-H358; first compound 8 µM)?
The relative viability was 0.111.

And the relative viability (SK-LU-1; first compound 0.08 µM)?
The relative viability was 0.309.

What about the relative viability (SK-LU-1; first compound 0.253 µM) of the same compound?
Its relative viability is 0.312.

What about the relative viability (SK-LU-1; first compound 0.8 µM) of the same compound?
The relative viability was 0.313.

What about the relative viability (SK-LU-1; first compound 2.53 µM) of the same compound?
The relative viability was 0.269.

What about the relative viability (SK-LU-1; first compound 8 µM) of the same compound?
Its relative viability is 0.322.

What about the relative viability (NCI-H1975; first compound 0.08 µM) of the same compound?
Its relative viability is 0.867.

What about the relative viability (NCI-H1975; first compound 0.253 µM) of the same compound?
Its relative viability is 0.803.

And the relative viability (NCI-H1975; first compound 0.8 µM)?
Its relative viability is 0.653.

And the relative viability (NCI-H1975; first compound 2.53 µM)?
Its relative viability is 0.341.

What about the relative viability (NCI-H1975; first compound 8 µM) of the same compound?
The relative viability was 0.299.

And the relative viability (BEN; first compound 0.08 µM)?
The relative viability was 0.724.

What about the relative viability (BEN; first compound 0.253 µM) of the same compound?
The relative viability was 0.487.

What about the relative viability (BEN; first compound 0.8 µM) of the same compound?
The relative viability was 0.423.

And the relative viability (BEN; first compound 2.53 µM)?
The relative viability was 0.456.

And the relative viability (BEN; first compound 8 µM)?
Its relative viability is 0.617.

What about the relative viability (NCI-H1651; first compound 0.08 µM) of the same compound?
Its relative viability is 0.669.

What about the relative viability (NCI-H1651; first compound 0.253 µM) of the same compound?
Its relative viability is 0.668.

And the relative viability (NCI-H1651; first compound 0.8 µM)?
Its relative viability is 0.625.

And the relative viability (NCI-H1651; first compound 2.53 µM)?
The relative viability was 0.672.

What about the relative viability (NCI-H1651; first compound 8 µM) of the same compound?
The relative viability was 0.669.

And the relative viability (NCI-H2085; first compound 0.08 µM)?
Its relative viability is 0.778.

And the relative viability (NCI-H2085; first compound 0.253 µM)?
The relative viability was 0.724.

And the relative viability (NCI-H2085; first compound 0.8 µM)?
The relative viability was 0.768.

What about the relative viability (NCI-H2085; first compound 2.53 µM) of the same compound?
Its relative viability is 0.579.

And the relative viability (NCI-H2085; first compound 8 µM)?
Its relative viability is 0.551.

And the relative viability (NCI-H1734; first compound 0.08 µM)?
The relative viability was 0.271.

And the relative viability (NCI-H1734; first compound 0.253 µM)?
The relative viability was 0.261.

What about the relative viability (NCI-H1734; first compound 0.8 µM) of the same compound?
The relative viability was 0.265.

And the relative viability (NCI-H1734; first compound 8 µM)?
The relative viability was 0.26.

What about the relative viability (NCI-H838; first compound 0.08 µM) of the same compound?
Its relative viability is 0.295.

What about the relative viability (NCI-H838; first compound 0.253 µM) of the same compound?
Its relative viability is 0.277.

And the relative viability (NCI-H838; first compound 0.8 µM)?
The relative viability was 0.245.

And the relative viability (NCI-H838; first compound 2.53 µM)?
Its relative viability is 0.273.

What about the relative viability (NCI-H838; first compound 8 µM) of the same compound?
Its relative viability is 0.266.

What about the relative viability (NCI-H1793; first compound 0.08 µM) of the same compound?
The relative viability was 0.362.

What about the relative viability (NCI-H1793; first compound 0.253 µM) of the same compound?
Its relative viability is 0.38.

What about the relative viability (NCI-H1793; first compound 0.8 µM) of the same compound?
Its relative viability is 0.325.

And the relative viability (NCI-H1793; first compound 2.53 µM)?
Its relative viability is 0.228.

What about the relative viability (NCI-H1793; first compound 8 µM) of the same compound?
Its relative viability is 0.245.

What about the relative viability (HCC-366; first compound 0.08 µM) of the same compound?
The relative viability was 0.144.

What about the relative viability (HCC-366; first compound 0.253 µM) of the same compound?
The relative viability was 0.367.

What about the relative viability (HCC-366; first compound 0.8 µM) of the same compound?
The relative viability was 0.093.

What about the relative viability (HCC-366; first compound 2.53 µM) of the same compound?
The relative viability was 0.0682.

What about the relative viability (HCC-366; first compound 8 µM) of the same compound?
Its relative viability is 0.0642.

And the relative viability (NCI-H1437; first compound 0.08 µM)?
The relative viability was 0.385.

What about the relative viability (NCI-H1437; first compound 0.253 µM) of the same compound?
Its relative viability is 0.477.

What about the relative viability (NCI-H1437; first compound 0.8 µM) of the same compound?
The relative viability was 0.43.

What about the relative viability (NCI-H1437; first compound 2.53 µM) of the same compound?
The relative viability was 0.381.

And the relative viability (NCI-H1437; first compound 8 µM)?
The relative viability was 0.435.

What about the relative viability (LOU-NH91; first compound 0.08 µM) of the same compound?
The relative viability was 0.652.

What about the relative viability (LOU-NH91; first compound 0.253 µM) of the same compound?
Its relative viability is 0.678.

And the relative viability (LOU-NH91; first compound 0.8 µM)?
Its relative viability is 0.638.

And the relative viability (LOU-NH91; first compound 2.53 µM)?
The relative viability was 0.568.

What about the relative viability (LOU-NH91; first compound 8 µM) of the same compound?
The relative viability was 0.679.

What about the relative viability (NCI-H1355; first compound 0.08 µM) of the same compound?
Its relative viability is 0.521.

And the relative viability (NCI-H1355; first compound 0.253 µM)?
The relative viability was 0.511.

And the relative viability (NCI-H1355; first compound 0.8 µM)?
The relative viability was 0.483.

What about the relative viability (NCI-H1355; first compound 2.53 µM) of the same compound?
The relative viability was 0.52.

And the relative viability (NCI-H1355; first compound 8 µM)?
The relative viability was 0.346.

And the relative viability (CAL-12T; first compound 0.08 µM)?
Its relative viability is 0.296.

And the relative viability (CAL-12T; first compound 0.253 µM)?
Its relative viability is 0.292.

And the relative viability (CAL-12T; first compound 0.8 µM)?
Its relative viability is 0.32.

And the relative viability (CAL-12T; first compound 2.53 µM)?
The relative viability was 0.232.

What about the relative viability (CAL-12T; first compound 8 µM) of the same compound?
The relative viability was 0.224.

And the relative viability (LU99A; first compound 0.08 µM)?
The relative viability was 0.279.

And the relative viability (LU99A; first compound 0.253 µM)?
Its relative viability is 0.252.

And the relative viability (LU99A; first compound 0.8 µM)?
Its relative viability is 0.28.

What about the relative viability (LU99A; first compound 2.53 µM) of the same compound?
The relative viability was 0.285.

What about the relative viability (LU99A; first compound 8 µM) of the same compound?
The relative viability was 0.296.

And the relative viability (NCI-H2342; first compound 0.08 µM)?
Its relative viability is 0.505.

And the relative viability (NCI-H2342; first compound 0.253 µM)?
The relative viability was 0.495.

What about the relative viability (NCI-H2342; first compound 0.8 µM) of the same compound?
The relative viability was 0.472.

What about the relative viability (NCI-H2342; first compound 2.53 µM) of the same compound?
Its relative viability is 0.532.

And the relative viability (NCI-H2342; first compound 8 µM)?
Its relative viability is 0.466.

What about the relative viability (NCI-H2023; first compound 0.08 µM) of the same compound?
The relative viability was 0.309.

What about the relative viability (NCI-H2023; first compound 0.253 µM) of the same compound?
Its relative viability is 0.295.

What about the relative viability (NCI-H2023; first compound 0.8 µM) of the same compound?
The relative viability was 0.302.

And the relative viability (NCI-H2023; first compound 2.53 µM)?
The relative viability was 0.216.

And the relative viability (NCI-H2023; first compound 8 µM)?
The relative viability was 0.247.

From the supplement of paper PMC10307832
